Results on 31 compounds are retold here after US20260297070A1, “CYCLIC [COMPOUND LEFT OUT] WRN INHIBITORS” (Nimbus Wadjet, Inc., priority 2023, published 2026).

T1 sequence (Q14191 with tags, fused parts or gaps L1074F limits assumed): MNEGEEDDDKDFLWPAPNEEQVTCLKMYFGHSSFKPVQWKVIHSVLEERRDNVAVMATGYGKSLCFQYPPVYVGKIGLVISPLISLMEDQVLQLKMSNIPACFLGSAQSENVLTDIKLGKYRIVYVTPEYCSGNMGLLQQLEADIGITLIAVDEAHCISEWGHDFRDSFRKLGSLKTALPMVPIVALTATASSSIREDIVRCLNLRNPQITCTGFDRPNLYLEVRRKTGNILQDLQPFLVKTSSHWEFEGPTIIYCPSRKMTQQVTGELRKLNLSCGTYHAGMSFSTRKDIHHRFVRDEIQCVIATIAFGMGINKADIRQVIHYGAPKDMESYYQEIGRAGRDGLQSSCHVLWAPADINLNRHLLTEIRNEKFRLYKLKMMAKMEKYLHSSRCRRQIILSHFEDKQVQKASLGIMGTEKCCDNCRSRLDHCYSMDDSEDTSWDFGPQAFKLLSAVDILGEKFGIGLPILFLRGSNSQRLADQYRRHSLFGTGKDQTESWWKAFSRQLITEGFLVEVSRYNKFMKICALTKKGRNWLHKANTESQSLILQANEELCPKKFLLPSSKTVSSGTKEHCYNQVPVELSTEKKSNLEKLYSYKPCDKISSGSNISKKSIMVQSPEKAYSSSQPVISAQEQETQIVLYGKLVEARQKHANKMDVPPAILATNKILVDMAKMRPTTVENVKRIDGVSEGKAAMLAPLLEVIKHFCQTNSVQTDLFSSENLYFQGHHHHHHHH

The experiment has as its target T1, human Werner helicase (WRN-BV08, Uniprot Q14191, amino acids 517-1235 with L1074F point mutation) (Homo sapiens, UniProt Q14191, L1074F).
T1 construct: Uniprot Q14191, amino acids 517-1235 with L1074F point mutation; TEV-cleavable 8×His (C, cleaved yes); made in house; host or cells: Sf9 insect cells (baculovirus)
Nature of the experiment: WRN (BV08) ADP-Glo Assay. The class given is biochemical. The settings on record: 0.15 nM WRN, 5 μM ATP, 0.1 nM DNA duplex, 15 min preincubation, 60 min at 25° C., pH 7.5, 1% DMSO; read-out: ADP-Glo_hWRN_IC50. An outline of the steps:
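ADP produced by WRN helicase fragment 517-1235 (L1074F, baculovirus/Sf9, untagged) read by ADP-Glo luminescence after 60 min at 25 °C with 5 μM ATP and 0.1 nM duplex DNA, following 15 min compound preincubation. Final enzyme 0.15 nM in Bicine pH 7.5 buffer, 1% DMSO; 20 μM NSC-617145 defined full inhibition.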
For orientation: ADP-Glo turns the ADP formed in a reaction into a luminescent signal.
`N#Cc1ccc(CC(=O)N(Cc2ccncc2)C2C=CS(=O)(=O)C2)cc1` (stereo not shown) [I-513, 2-(4-cyanophenyl)-N-(1,1-dioxo-2,3-dihydro-1lambda6-thiophen-3-yl)-N-[(pyridin-4-yl)methyl]acetamide]: the IC50 is > 50 µM.
In the case of `O=C(Cc1ccc2ncccc2c1)N(Cc1ccncc1)C1C=CS(=O)(=O)C1` (stereo not shown) [I-514, N-(1,1-dioxo-2,3-dihydro-1lambda6-thiophen-3-yl)-N-[(pyridin-4-yl)methyl]-2-(quinolin-6-yl)acetamide] it was > 50 µM; in that of `O=C(Cc1noc2ccccc12)N(Cc1ccncc1)C1C=CS(=O)(=O)C1` (stereo not shown) [I-516, 2-(1,2-benzoxazol-3-yl)-N-(1,1-dioxo-2,3-dihydro-1lambda6-thiophen-3-yl)-N-[(pyridin-4-yl)methyl]acetamide], > 50 µM; in that of `O=C(CCc1ccc(-n2cccc2)cc1)N(Cc1ccncc1)C1C=CS(=O)(=O)C1` (stereo not shown) [I-519, N-(1,1-dioxo-2,3-dihydro-1lambda6-thiophen-3-yl)-N-[(pyridin-4-yl)methyl]-3-[4-(1H-pyrrol-1-yl)phenyl]propanamide], > 50 µM.
Take `O=C(Cc1ccc(-n2cccc2)cc1)N(Cc1ccccc1Cl)C1C=CS(=O)(=O)C1` (stereo not shown) [I-521, N-[(2-chlorophenyl)methyl]-N-(1,1-dioxo-2,3-dihydro-1lambda6-thiophen-3-yl)-2-[4-(1H-pyrrol-1-yl)phenyl]acetamide]: the IC50 is > 50 µM.
The result for `O=C(Cc1ccc(-n2cccc2)cc1)N(Cc1cc(F)cc(F)c1)C1C=CS(=O)(=O)C1` (stereo not shown) [I-522, N-[(3,5-difluorophenyl)methyl]-N-(1,1-dioxo-2,3-dihydro-1lambda6-thiophen-3-yl)-2-[4-(1H-pyrrol-1-yl)phenyl]acetamide] reads > 50 µM; that for `COc1ccccc1CN(C(=O)Cc1ccc(-n2cccc2)cc1)C1C=CS(=O)(=O)C1` (stereo not shown) [I-524, N-(1,1-dioxo-2,3-dihydro-1lambda6-thiophen-3-yl)-N-[(2-methoxyphenyl)methyl]-2-[4-(1H-pyrrol-1-yl)phenyl]acetamide], > 50 µM.
In the case of `O=C(Cc1ccc(-n2cccc2)cc1)N(C1C=CS(=O)(=O)C1)C(CO)c1ccccc1` (stereo not shown) [I-525, N-(1,1-dioxo-2,3-dihydro-1lambda6-thiophen-3-yl)-N-(2-hydroxy-1-phenylethyl)-2-[4-(1H-pyrrol-1-yl)phenyl]acetamide], the IC50 is > 50 µM.
The result for `O=C(C(c1ccc(Cl)cc1)c1ccc(Cl)cc1)N(Cc1ccncc1)C1C=CS(=O)(=O)C1` (stereo not shown) [I-526, 2,2-bis(4-chlorophenyl)-N-(1,1-dioxo-2,3-dihydro-1lambda6-thiophen-3-yl)-N-[(pyridin-4-yl)methyl]acetamide] reads > 50 µM; that for `CS(=O)(=O)c1ccc(CC(=O)N(Cc2ccncc2)C2C=CS(=O)(=O)C2)cc1` (stereo not shown) [I-527, N-(1,1-dioxo-2,3-dihydro-1lambda6-thiophen-3-yl)-2-(4-methanesulfonylphenyl)-N-[(pyridin-4-yl)methyl]acetamide], > 50 µM.
`O=C(Cc1cccc(-n2cccc2)c1)N(Cc1ccncc1)C1C=CS(=O)(=O)C1` (stereo not shown) [I-528, N-(1,1-dioxo-2,3-dihydro-1lambda6-thiophen-3-yl)-N-[(pyridin-4-yl)methyl]-2-[3-(1H-pyrrol-1-yl)phenyl]acetamide]: the IC50 is > 50 µM.
In the case of `O=C(/C=C/c1ccc(C(F)(F)F)cc1)N(Cc1ccncc1)C1C=CS(=O)(=O)C1` (stereo not shown) [I-529, (2E)-N-(1,1-dioxo-2,3-dihydro-1lambda6-thiophen-3-yl)-N-[(pyridin-4-yl)methyl]-3-[4-(trifluoromethyl)phenyl]prop-2-enamide] it was > 50 µM; in that of `O=C(/C=C/c1ccccc1)N(Cc1ccncc1)C1C=CS(=O)(=O)C1` (stereo not shown) [I-530, (2E)-N-(1,1-dioxo-2,3-dihydro-1lambda6-thiophen-3-yl)-3-phenyl-N-[(pyridin-4-yl)methyl]prop-2-enamide], > 50 µM; in that of `O=C(Cc1ccc(-n2cnnc2)cc1)N(Cc1ccncc1)C1C=CS(=O)(=O)C1` (stereo not shown) [I-532, N-(1,1-dioxo-2,3-dihydro-1lambda6-thiophen-3-yl)-N-[(pyridin-4-yl)methyl]-2-[4-(4H-1,2,4-triazol-4-yl)phenyl]acetamide], > 50 µM.
In the case of `O=C(Cc1ccc(-n2cccc2)cc1)N(C1C=CS(=O)(=O)C1)C1CCC1` (stereo not shown) [I-533, N-cyclobutyl-N-(1,1-dioxo-2,3-dihydro-1lambda6-thiophen-3-yl)-2-[4-(1H-pyrrol-1-yl)phenyl]acetamide] it was > 50 µM; in that of `O=C(Cc1ccc(-n2cccc2)cc1)N(Cc1ccccc1Br)C1C=CS(=O)(=O)C1` (stereo not shown) [I-534, N-[(2-bromophenyl)methyl]-N-(1,1-dioxo-2,3-dihydro-1lambda6-thiophen-3-yl)-2-[4-(1H-pyrrol-1-yl)phenyl]acetamide], > 50 µM; in that of `CC(C)(C)OC(=O)NC(C(=O)N(Cc1ccccc1)C1C=CS(=O)(=O)C1)c1ccc(-n2cccc2)cc1` (stereo not shown) [I-535, tert-butyl N-{[benzyl(1,1-dioxo-2,3-dihydro-1lambda6-thiophen-3-yl)carbamoyl][4-(1H-pyrrol-1-yl)phenyl]methyl}carbamate], > 50 µM.
The result for `O=C(Cc1cccc(C(F)(F)F)c1)N(Cc1ccncc1)C1C=CS(=O)(=O)C1` (stereo not shown) [I-536, N-(1,1-dioxo-2,3-dihydro-1lambda6-thiophen-3-yl)-N-[(pyridin-4-yl)methyl]-2-[3-(trifluoromethyl)phenyl]acetamide] reads > 50 µM; that for `O=C(c1cnn(Cc2ccccc2)c1)N(Cc1ccncc1)C1C=CS(=O)(=O)C1` (stereo not shown) [I-538, 1-benzyl-N-(1,1-dioxo-2,3-dihydro-1lambda6-thiophen-3-yl)-N-[(pyridin-4-yl)methyl]-1H-pyrazole-4-carboxamide], > 50 µM; that for `O=C(C1CCCN(c2ccccc2)C1)N(Cc1ccncc1)C1C=CS(=O)(=O)C1` (stereo not shown) [I-539, N-(1,1-dioxo-2,3-dihydro-1lambda6-thiophen-3-yl)-1-phenyl-N-[(pyridin-4-yl)methyl]piperidine-3-carboxamide], > 50 µM.
With `O=C(Cc1ccc(-n2cccc2)cc1)N(CC12CC(C1)C2)C1C=CS(=O)(=O)C1` (stereo not shown) [I-540, N-({bicyclo[1.1.1]pentan-1-yl}methyl)-N-(1,1-dioxo-2,3-dihydro-1lambda6-thiophen-3-yl)-2-[4-(1H-pyrrol-1-yl)phenyl]acetamide], the IC50 was > 50 µM.
The result for `COc1ccc2c(CC(=O)N(Cc3ccncc3)C3C=CS(=O)(=O)C3)c[nH]c2c1` (stereo not shown) [I-541, N-(1,1-dioxo-2,3-dihydro-1lambda6-thiophen-3-yl)-2-(6-methoxy-1H-indol-3-yl)-N-[(pyridin-4-yl)methyl]acetamide] reads > 50 µM; that for `O=C1Cc2ccc(CC(=O)N(Cc3ccncc3)C3C=CS(=O)(=O)C3)cc2N1` (stereo not shown) [I-542, N-(1,1-dioxo-2,3-dihydro-1lambda6-thiophen-3-yl)-2-(2-oxo-2,3-dihydro-1H-indol-6-yl)-N-[(pyridin-4-yl)methyl]acetamide], > 50 µM; that for `O=C(Cc1coc(-c2ccc(F)cc2)n1)N(Cc1ccncc1)C1C=CS(=O)(=O)C1` (stereo not shown) [I-543, N-(1,1-dioxo-2,3-dihydro-1lambda6-thiophen-3-yl)-2-[2-(4-fluorophenyl)-1,3-oxazol-4-yl]-N-[(pyridin-4-yl)methyl]acetamide], > 50 µM.
Turning to `O=C(Cc1cnn(Cc2ccccc2)c1)N(Cc1ccncc1)C1C=CS(=O)(=O)C1` (stereo not shown) [I-544, 2-(1-benzyl-1H-pyrazol-4-yl)-N-(1,1-dioxo-2,3-dihydro-1lambda6-thiophen-3-yl)-N-[(pyridin-4-yl)methyl]acetamide], the IC50 was > 50 µM.
Turning to `O=C(Cc1ccc(-n2cccc2)cc1)N(CC12CCC(CC1)CC2)C1C=CS(=O)(=O)C1` (stereo not shown) [I-545, N-({bicyclo[2.2.2]octan-1-yl}methyl)-N-(1,1-dioxo-2,3-dihydro-1lambda6-thiophen-3-yl)-2-[4-(1H-pyrrol-1-yl)phenyl]acetamide], the IC50 was > 50 µM.
In the case of `N#Cc1ccc2c(CC(=O)N(Cc3ccncc3)C3C=CS(=O)(=O)C3)c[nH]c2c1` (stereo not shown) [I-546, 2-(6-cyano-1H-indol-3-yl)-N-(1,1-dioxo-2,3-dihydro-1lambda6-thiophen-3-yl)-N-[(pyridin-4-yl)methyl]acetamide] it was > 50 µM; in that of `O=C(Cc1csc(-c2ccccc2)n1)N(Cc1ccncc1)C1C=CS(=O)(=O)C1` (stereo not shown) [I-547, N-(1,1-dioxo-2,3-dihydro-1lambda6-thiophen-3-yl)-2-(2-phenyl-1,3-thiazol-4-yl)-N-[(pyridin-4-yl)methyl]acetamide], > 50 µM.
In the case of `CS(=O)(=O)N1CCN(C(C(=O)N(Cc2ccncc2)C2C=CS(=O)(=O)C2)c2ccc(-c3ccc(F)cc3)cc2)CC1` (stereo not shown) [I-548, N-(1,1-dioxo-2,3-dihydro-1lambda6-thiophen-3-yl)-2-{4′-fluoro-[1,1′-biphenyl]-4-yl}-2-(4-methanesulfonylpiperazin-1-yl)-N-[(pyridin-4-yl)methyl]acetamide] it was > 50 µM; in that of `O=C(Cc1ccc(-n2cccc2)cc1)N(C1C=CS(=O)(=O)C1)[C@H]1CCOc2ccccc21` (stereo partly drawn) [I-550, N-[(4S)-3,4-dihydro-2H-1-benzopyran-4-yl]-N-(1,1-dioxo-2,3-dihydro-1lambda6-thiophen-3-yl)-2-[4-(1H-pyrrol-1-yl)phenyl]acetamide], > 50 µM; in that of `CN(C)C(=O)CC(C(=O)N(Cc1ccncc1)C1C=CS(=O)(=O)C1)c1ccc(-n2cccc2)cc1` (stereo not shown) [I-551, N-(1,1-dioxo-2,3-dihydro-1lambda6-thiophen-3-yl)-N′,N′-dimethyl-N-[(pyridin-4-yl)methyl]-2-[4-(1H-pyrrol-1-yl)phenyl]butanediamide], > 50 µM.
